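Following 48 hours of exposure in 96-well plates, responses at five concentrations were used to interpolate endpoints linearly. Here, GI50 denotes the concentration required for 50% inhibition of growth. At the TGI there is no net growth.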
Columns and labels:
Test in all cases: NCI anticancer screen, dose series, 48 h; in the data active = GI50 below about 0.43 µM; inactive = the rest
786-0 renal = test system: 786-0 renal
A498 renal = test system: A498 renal
A549 NSCLC = test system: A549 NSCLC
ACHN renal = test system: ACHN renal
BT-549 breast = test system: BT-549 breast
CAKI-1 renal = test system: CAKI-1 renal
CCRF-CEM leukemia = test system: CCRF-CEM leukemia
COLO 205 colon = test system: COLO 205 colon
DU-145 prostate = test system: DU-145 prostate
EKVX NSCLC = test system: EKVX NSCLC
HCT-116 colon = test system: HCT-116 colon
HCT-15 colon = test system: HCT-15 colon
HL-60(TB) leukemia = test system: HL-60(TB) leukemia
HOP-62 NSCLC = test system: HOP-62 NSCLC
HOP-92 NSCLC = test system: HOP-92 NSCLC
HS 578T breast = test system: HS 578T breast
IGROV1 ovarian = test system: IGROV1 ovarian
K-562 leukemia = test system: K-562 leukemia
KM12 colon = test system: KM12 colon
LOX IMVI melanoma = test system: LOX IMVI melanoma
M14 melanoma = test system: M14 melanoma
MCF7 breast = test system: MCF7 breast
MDA-MB-231 breast = test system: MDA-MB-231 breast
MDA-MB-435 = test system: MDA-MB-435
MOLT-4 leukemia = test system: MOLT-4 leukemia
NCI-H226 lung = test system: NCI-H226 lung
NCI-H23 lung = test system: NCI-H23 lung
NCI-H460 lung = test system: NCI-H460 lung
NCI-H522 lung = test system: NCI-H522 lung
NCI/ADR-RES ovarian = test system: NCI/ADR-RES ovarian
OVCAR-3 ovarian = test system: OVCAR-3 ovarian
OVCAR-4 ovarian = test system: OVCAR-4 ovarian
OVCAR-5 ovarian = test system: OVCAR-5 ovarian
OVCAR-8 ovarian = test system: OVCAR-8 ovarian
PC-3 prostate = test system: PC-3 prostate
RPMI-8226 leukemia = test system: RPMI-8226 leukemia
RXF 393 renal = test system: RXF 393 renal
SF-268 CNS = test system: SF-268 CNS
SF-295 CNS = test system: SF-295 CNS
SF-539 CNS = test system: SF-539 CNS
SK-MEL-2 melanoma = test system: SK-MEL-2 melanoma
SK-MEL-28 melanoma = test system: SK-MEL-28 melanoma
SK-MEL-5 melanoma = test system: SK-MEL-5 melanoma
SK-OV-3 ovarian = test system: SK-OV-3 ovarian
SN12C renal = test system: SN12C renal
SNB-19 CNS = test system: SNB-19 CNS
SR leukemia = test system: SR leukemia
SW-620 colon = test system: SW-620 colon
TK-10 renal = test system: TK-10 renal
U251 CNS = test system: U251 CNS
UACC-257 melanoma = test system: UACC-257 melanoma
UACC-62 melanoma = test system: UACC-62 melanoma
UO-31 renal = test system: UO-31 renal

Cn1nc(-c2cccs2)cc1/N=C(\N)C(C)(C#N)Cc1ccccc1 (stereo unspecified)
75.8 µM: TGI (OVCAR-5 ovarian)
53.3 µM: TGI (LOX IMVI melanoma)
48.4 µM: TGI (ACHN renal)
75.7 µM: TGI (SF-295 CNS)
98.7 µM: TGI (OVCAR-8 ovarian)
71.8 µM: TGI (UACC-257 melanoma)
77.1 µM: TGI (SF-539 CNS)
39.4 µM: TGI (MDA-MB-231 breast)
52.7 µM: TGI (U251 CNS)
58.5 µM: TGI (HS 578T breast)
79.3 µM: TGI (SN12C renal)
> 100 µM: TGI (786-0 renal) | TGI (BT-549 breast) | TGI (CCRF-CEM leukemia) | TGI (COLO 205 colon) | TGI (DU-145 prostate) | TGI (EKVX NSCLC) | TGI (HCT-116 colon) | TGI (HCT-15 colon) | TGI (HOP-62 NSCLC) | TGI (HOP-92 NSCLC) | TGI (IGROV1 ovarian) | TGI (K-562 leukemia) | TGI (M14 melanoma) | TGI (MCF7 breast) | TGI (MOLT-4 leukemia) | TGI (NCI-H522 lung) | TGI (OVCAR-4 ovarian) | TGI (SF-268 CNS) | TGI (SK-MEL-2 melanoma) | TGI (SK-MEL-28 melanoma) | TGI (SK-OV-3 ovarian) | TGI (SNB-19 CNS) | TGI (SR leukemia) | TGI (SW-620 colon) | TGI (UO-31 renal)
inactive: GI50 (786-0 renal) 39.7 µM | GI50 (A498 renal) 32 µM | GI50 (A549 NSCLC) 23.4 µM | GI50 (ACHN renal) 20.7 µM | GI50 (BT-549 breast) 35.4 µM | GI50 (CAKI-1 renal) 22.9 µM | GI50 (CCRF-CEM leukemia) 46.4 µM | GI50 (COLO 205 colon) 39.9 µM | GI50 (DU-145 prostate) 47.6 µM | GI50 (EKVX NSCLC) 47.4 µM | GI50 (HCT-116 colon) 27.2 µM | GI50 (HCT-15 colon) 29.3 µM | GI50 (HL-60(TB) leukemia) 26.5 µM | GI50 (HOP-62 NSCLC) 38.7 µM | GI50 (HOP-92 NSCLC) 32.7 µM | GI50 (HS 578T breast) 18.3 µM | GI50 (IGROV1 ovarian) 54.2 µM | GI50 (K-562 leukemia) 33.3 µM | GI50 (KM12 colon) 29 µM | GI50 (LOX IMVI melanoma) 23.3 µM | GI50 (M14 melanoma) 29.9 µM | GI50 (MCF7 breast) 31.5 µM | GI50 (MDA-MB-231 breast) 16.3 µM | GI50 (MDA-MB-435) 25.7 µM | GI50 (MOLT-4 leukemia) 67.1 µM | GI50 (NCI-H226 lung) 20.4 µM | GI50 (NCI-H23 lung) 27.7 µM | GI50 (NCI-H460 lung) 26.7 µM | GI50 (NCI-H522 lung) 56.1 µM | GI50 (NCI/ADR-RES ovarian) 23.7 µM | GI50 (OVCAR-3 ovarian) 21.9 µM | GI50 (OVCAR-4 ovarian) 28.1 µM | GI50 (OVCAR-5 ovarian) 31.6 µM | GI50 (OVCAR-8 ovarian) 37.1 µM | GI50 (PC-3 prostate) 32.4 µM | GI50 (RPMI-8226 leukemia) 15.5 µM | GI50 (RXF 393 renal) 49.3 µM | GI50 (SF-268 CNS) 36.9 µM | GI50 (SF-295 CNS) 26.9 µM | GI50 (SF-539 CNS) 37.6 µM | GI50 (SK-MEL-2 melanoma) 63.7 µM | GI50 (SK-MEL-28 melanoma) 70.3 µM | GI50 (SK-MEL-5 melanoma) 18.4 µM | GI50 (SK-OV-3 ovarian) 44.8 µM | GI50 (SN12C renal) 24.8 µM | GI50 (SNB-19 CNS) 62.7 µM | GI50 (SR leukemia) 45.2 µM | GI50 (SW-620 colon) 34.2 µM | GI50 (TK-10 renal) 27.3 µM | GI50 (U251 CNS) 21.9 µM | GI50 (UACC-257 melanoma) 32 µM | GI50 (UACC-62 melanoma) 22.8 µM | GI50 (UO-31 renal) 44.1 µM
46.5 µM: TGI (RPMI-8226 leukemia)
60.8 µM: TGI (CAKI-1 renal)
90.4 µM: TGI (PC-3 prostate)
62.2 µM: TGI (MDA-MB-435)
37.4 µM: TGI (SK-MEL-5 melanoma)
53.9 µM: TGI (NCI-H23 lung)
58.3 µM: TGI (OVCAR-3 ovarian)
49.5 µM: TGI (NCI/ADR-RES ovarian)
91.6 µM: TGI (TK-10 renal)
57.1 µM: TGI (A549 NSCLC)
58.1 µM: TGI (NCI-H226 lung)
49.6 µM: TGI (UACC-62 melanoma)
64.7 µM: TGI (A498 renal)
59.5 µM: TGI (HL-60(TB) leukemia)
90.3 µM: TGI (RXF 393 renal)
80.7 µM: TGI (NCI-H460 lung)
93.7 µM: TGI (KM12 colon)
